{"source": "patent US20050009124A1", "about": "“Assays for detection of phosphoinositide kinase and phosphatase activity” (Echelon Biosciences Incorporated, priority 2001, published 2005)", "assay_type_in_all_cases": "binding", "key": {"[1]": {"molecular_target": "T1, GST-Grp1 (Homo sapiens, UniProt O43739)", "T1 sequence (O43739 1-400)": "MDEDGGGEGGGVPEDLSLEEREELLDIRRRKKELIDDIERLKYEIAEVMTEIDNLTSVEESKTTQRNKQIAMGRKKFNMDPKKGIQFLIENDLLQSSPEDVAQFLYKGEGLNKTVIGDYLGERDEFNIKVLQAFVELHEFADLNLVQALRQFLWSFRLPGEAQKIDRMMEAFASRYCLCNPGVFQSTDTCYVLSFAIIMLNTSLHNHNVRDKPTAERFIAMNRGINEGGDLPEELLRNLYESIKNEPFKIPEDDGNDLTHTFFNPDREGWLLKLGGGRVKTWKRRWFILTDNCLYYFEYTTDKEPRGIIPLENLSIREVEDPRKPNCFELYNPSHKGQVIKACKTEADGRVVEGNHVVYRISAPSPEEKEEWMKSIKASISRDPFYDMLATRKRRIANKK", "test": "Competition fluorogenic assay with GST-Grp1/GS-QSY 7 complex", "conditions": "probe 10 nM, GST-Grp1 0.5 μM, GS-QSY 7 2.5 μM, increasing competitor", "description": "The fluorogenic assays using a glutathione quencher conjugate (e.g. GS-QSY 7) were set up in a black 384-well plate. A combination of the assay components described in detail below, including GST-Grp1, BODIPY®-FL-PI(3,4,5)P3, GS-QSY7, and phosphoinositide competitors, were incubated in the dark for 1 hour. The total reaction volume was either 25 or 50 μl in PBS (pH 7.4). The plate was then transferred to an Alpha Fusion plate reader and read with a 485/520 nm filter.\nThis fluorogenic assay was also specific."}, "[2]": {"molecular_target": "GST-TAPP1 (Homo sapiens, UniProt Q9HB21)", "sequence (Q9HB21 whole entry)": "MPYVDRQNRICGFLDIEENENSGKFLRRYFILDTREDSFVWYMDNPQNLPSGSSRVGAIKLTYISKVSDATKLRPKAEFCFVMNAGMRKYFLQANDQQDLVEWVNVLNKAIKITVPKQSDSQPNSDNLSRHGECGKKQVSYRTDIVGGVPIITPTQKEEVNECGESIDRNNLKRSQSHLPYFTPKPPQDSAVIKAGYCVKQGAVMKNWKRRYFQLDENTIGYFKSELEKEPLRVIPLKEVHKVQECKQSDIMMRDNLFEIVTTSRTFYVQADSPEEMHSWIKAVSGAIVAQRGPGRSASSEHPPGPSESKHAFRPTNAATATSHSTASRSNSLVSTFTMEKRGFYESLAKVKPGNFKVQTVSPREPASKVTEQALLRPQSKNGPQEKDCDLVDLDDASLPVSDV", "test": "Competitive FP assay, displacement of BODIPY-TMR-PI(3,4)P2 tracer from GST-TAPP1", "description": "(§1) In order to use these reagents in a competitive FP assay, unlabeled phosphoinositide products of an enzymatic reaction must be able to successfully compete with the labeled tracer for interaction with the binding proteins. In addition, the level of cross-reactivity of binding proteins with the phosphoinositides used as enzyme substrates should be minimal. To examine the suitability of these phosphoinositide binding proteins for this application, competition assays were performed using optimal amounts of lipid binding proteins and fluorescent tracers, mixed with increasing amounts of diC8-phosphoinositide competitors.\nSimilar competition assays were performed to examine the selectivity and sensitivity of PI(3,4)P2 detection by GST-TAPP1 (FIG. 10). In these assays, the concentrations of GST-TAPP1 and the fluorescently labeled phosphoinositide were held constant as the concentration of unlabeled lipid competitor was increased. […] In implementing these assays, the initial amount of PI(3,4,5)P3 substrate should be kept low enough to minimize competition."}, "[3]": {"molecular_target": "T2, GST-GRP1-PH (Homo sapiens, UniProt O43739)", "T2 construct": "The PH domain of GRP1 (general receptor for phosphoinositides) was used as a detector for PI(3,4,5)P3", "T2 sequence (O43739 264-381 limits assumed)": "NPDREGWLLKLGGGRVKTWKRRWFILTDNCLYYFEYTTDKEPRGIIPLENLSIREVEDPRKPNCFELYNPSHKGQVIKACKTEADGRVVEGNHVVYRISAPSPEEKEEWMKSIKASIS", "test": "Competitive FP assay, displacement of fluorescent tracer from GST-GRP1-PH", "conditions": "displacement of BODIPY®-TMR-I(1,3,4,5)P4 tracer", "description": "as §1\nThe sensitivity of this approach for detecting conversion of PI(4,5)P2 to PI(3,4,5)P3 was evaluated using GST-GRP1-PH protein and FAM and BODIPY®-TMR labeled tracers. Competition assays in which both diC8-PI(3,4,5)P3 and diC8-PI(4,5)P2 were added at increasing concentrations were performed."}, "[4]": {"molecular_target": "T3, SMQ-Grp1 (Homo sapiens, UniProt O43739)", "T3 construct": "small molecular quencher (Dabcyl, QSY 7 or QSY 9); made in house", "T3 sequence (O43739 1-400)": "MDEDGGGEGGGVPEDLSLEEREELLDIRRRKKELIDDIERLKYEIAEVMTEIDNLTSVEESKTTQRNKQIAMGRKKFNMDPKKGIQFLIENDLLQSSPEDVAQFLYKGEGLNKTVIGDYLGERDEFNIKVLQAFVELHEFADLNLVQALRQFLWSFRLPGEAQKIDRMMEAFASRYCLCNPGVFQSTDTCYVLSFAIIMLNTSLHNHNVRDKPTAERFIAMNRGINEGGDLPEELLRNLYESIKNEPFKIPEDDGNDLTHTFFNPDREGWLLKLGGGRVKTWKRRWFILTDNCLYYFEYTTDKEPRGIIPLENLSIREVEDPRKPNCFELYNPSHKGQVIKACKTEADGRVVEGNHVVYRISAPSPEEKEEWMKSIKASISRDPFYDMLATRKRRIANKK", "test": "Competitive dequenching fluorogenic assay with SMQ-Grp1", "description": "The fluorogenic assays were set up in a black 384-well plate. The combination of 100 nM, 10 nM and 1 nM of SMQ-Grp1 conjugate was incubated with 100 nM, 50 nM and 25 nM BODIPY®-FL-labeled PI(3,4,5)P3. The total assay volume was […] in a PBS buffer at a pH of 7.5. The assay mixture was incubated in the dark for one hour at 25° C. The plate was then transferred to an Alpha Fusion plate reader and read with a 485/520 nm filter. […] For example, if BODIPY®-FL-PI(3,4,5)P3 is fixed at 25 nM, increasing the amount of Dabcyl-Grp1 conjugate (from 1 nM to 100 nM) caused decreasing amounts of fluorescence (FIG. 24). Similar fluorescence quenching profiles were shown for QSY 7-Grp1 and QSY 9-Grp1.\nThe quenching effects of BODIPY®-FL-PI(3,4,5)P3 by SMQ-Grp1 were specific. diC8 PI(3,4,5)P3 as a competitor antagonized the fluorescence quenching effect of BODIPY®-FL-PI(3,4,5)P3 by SMQ-Grp1 in a dose-response manner. diC8 PI(3,4,5)P3 was used at varying concentrations to compete with BODIPY®-FL-PI(3,4,5)P3 for binding to the SMQ-Grp1 conjugate. […] In each bar graph in FIG. 25, from the right to the left, the bars show the fluorescence reading of PBS as the background, the diC8 PI(3,4,5)P3 only, the SMQ-Grp1 conjugate only, BODIPY®-FL-PI(3,4,5)P3 only, Grp1-SMQ plus BODIPY®-FL-PI(3,4,5)P3, Grp1-SMQ plus BODIPY®-FL-PI(3,4,5)P3 with 10 pmol of diC8 PI(3,4,5)P3 as the competitor, Grp1-SMQ plus BODIPY®-FL-PI(3,4,5)P3 with 100 pmol of diC8 PI(3,4,5)P3 as the competitor, Grp1-SMQ plus BODIPY®-FL-PI(3,4,5)P3 with 1000 pmol of diC8 PI(3,4,5)P3 as the competitor, and Grp1-SMQ plus BODIPY®-FL-PI(3,4,5)P3 with 10000 pmol of diC8 PI(3,4,5)P3 as competitor. […]\nFluorogenic assays were also used to compare competition of diC8 PI(3,4,5)P3 to PI(4,5)P2 and PI(3)P. With increasing amounts of PI(3,4,5)P3 the signal begins to increase, indicating competition, whereas as PI(4,5)P2 and PI(3)P show little change, indicating less competition. […] The production (or presence) of PI(3,4,5)P3 in this assay system corresponds to the elevation of the fluorescence signal."}, "[5]": {"test": "Fluorogenic assay, quenching of BODIPY-FL-PI(3,4,5)P3 by SMQ-Grp1 conjugates", "source_text": "The chemical modification of LRPs, e.g. Grp1, a PI(3,4,5)P3 binder, with small molecular quenchers (SMQ) has been thoroughly studied in this invention. Three SMQs, Dabcyl-SE (4-((4-(dimethylamino)phenyl)azo)benzoic acid, succinimidyl ester), QSY 7-SE (9-[2-[[4-[[(2,5-dioxo-1-pyrrolidinyl)oxy]carbonyl]-1-piperidinyl]sulfonyl]phenyl]-3,6-bis(methylphenylamino)-, chloride) and QSY 9-SE (QSY® 9 carboxylic acid, succinimidyl ester, C43H39ClN4O13S3), with diverse structures, spectral properties, hydrophobicity and solubility properties, were coupled to Grp1. Specifically, SMQ-modified Grp1 still retains its binding activity and quenches the fluorescence of BODIPY®-FL labeled PI(3,4,5)P3. With a fixed amount of BODIPY®-FL-PI(3,4,5)P3 in solution, increasing the amount of SMQ-Grp1 caused decreasing fluorescence of the PI(3,4,5)P3 fluorescent probes. At a ratio of 2:1 (QSY 7-Grp1:BODIPY®-FL-PI(3,4,5)P3), QSY 7-Grp1 quenched up to 70% of the fluorescence intensity of BODIPY®-FL PI(3,4,5)P3.\nThe fluorogenic assays were set up in a black 384-well plate. […] The plate was then transferred to an Alpha Fusion plate reader and read with a 485/520 nm filter. […] For example, if BODIPY®-FL-PI(3,4,5)P3 is fixed at 25 nM, increasing the amount of Dabcyl-Grp1 conjugate (from 1 nM to 100 nM) caused decreasing amounts of fluorescence (FIG. 24). […]"}}, "note": "Where two headings read alike, the source gives them in different places.", "data": [{"molecule": "CCCCCCCCCCCCCCCC(=O)OC[C@H](COP(=O)(O)OC1[C@H](O)[C@H](OP(=O)(O)O)C(OP(=O)(O)O)[C@H](OP(=O)(O)O)[C@H]1O)OC(=O)CCCCCCCCCCCCCCC", "note": "(stereo partly drawn) [DiC16 PI(3,4,5)P3]", "values": [{"measurement": "effect on fluorescence of BODIPY®-FL PI(3,4,5)P3 (competition)", "setting": "[1]", "value": "restored the fluorescence"}]}, {"molecule": "CCCCCCCC(=O)OC[C@H](COP(=O)(O)O[C@H]1[C@H](O)[C@@H](O)[C@H](OP(=O)(O)O)[C@@H](OP(=O)(O)O)[C@H]1O)OC(=O)CCCCCCC", "note": "[diC8-PI(3,4)P2]", "values": [{"measurement": "IC50", "setting": "[2]; read-out: IC50", "value": 165, "unit": "nM"}]}, {"molecule": "CCCCCCCC(=O)OC[C@H](COP(=O)(O)OC1[C@H](O)[C@H](OP(=O)(O)O)C(OP(=O)(O)O)[C@H](OP(=O)(O)O)[C@H]1O)OC(=O)CCCCCCC", "note": "(stereo partly drawn) [diC8-PI(3,4,5)P3]", "values": [{"measurement": "IC50", "setting": "[3]", "value": 218, "unit": "nM"}, {"measurement": "fluorescence restored, of the original", "setting": "[4]; 10000 pmol competitor, Dabcyl-Grp1 100 nM, probe 50 nM", "value": "up to 70%"}, {"measurement": "IC50", "setting": "[2]; predicted, read-out: predicted IC50", "value": 1510, "unit": "nM"}]}, {"molecule": "CCCCCCCCCCCCCCCC(=O)OC[C@H](COP(=O)(O)O[C@@H]1[C@H](O)[C@H](O)[C@@H](OP(=O)(O)O)[C@H](OP(=O)(O)O)[C@H]1O)OC(=O)CCCCCCCCCCCCCCC", "note": "[diC16 PI(4,5)P2]", "values": [{"measurement": "effect on fluorescence of BODIPY®-FL PI(3,4,5)P3 (competition)", "setting": "[1]", "value": "only marginally increased the fluorescence at higher concentrations"}]}, {"molecule": "PI(3)P", "values": [{"measurement": "change of fluorescence signal (competition)", "setting": "[4]; increasing amounts of competitor, compared with diC8 PI(3,4,5)P3", "value": "little change"}]}, {"molecule": "QSY 7-Grp1: Grp1, a PI(3,4,5)P3 binder, coupled to small molecular quencher QSY 7-SE (conjugate, UniProt O43739 1-400, looked up, QSY 7 quencher) Cytohesin-3: MDEDGGGEGGGVPEDLSLEEREELLDIRRRKKELIDDIERLKYEIAEVMTEIDNLTSVEESKTTQRNKQIAMGRKKFNMDPKKGIQFLIENDLLQSSPEDVAQFLYKGEGLNKTVIGDYLGERDEFNIKVLQAFVELHEFADLNLVQALRQFLWSFRLPGEAQKIDRMMEAFASRYCLCNPGVFQSTDTCYVLSFAIIMLNTSLHNHNVRDKPTAERFIAMNRGINEGGDLPEELLRNLYESIKNEPFKIPEDDGNDLTHTFFNPDREGWLLKLGGGRVKTWKRRWFILTDNCLYYFEYTTDKEPRGIIPLENLSIREVEDPRKPNCFELYNPSHKGQVIKACKTEADGRVVEGNHVVYRISAPSPEEKEEWMKSIKASISRDPFYDMLATRKRRIANKK", "values": [{"measurement": "quenching of fluorescence intensity of BODIPY®-FL PI(3,4,5)P3", "setting": "[5]; ratio 2:1 (QSY 7-Grp1:BODIPY®-FL-PI(3,4,5)P3)", "value": "up to 70%"}]}, {"molecule": "Dabcyl-Grp1 conjugate: Grp1, a PI(3,4,5)P3 binder, coupled to small molecular quencher Dabcyl-SE (conjugate, UniProt O43739 1-400, looked up, Dabcyl quencher) Cytohesin-3: MDEDGGGEGGGVPEDLSLEEREELLDIRRRKKELIDDIERLKYEIAEVMTEIDNLTSVEESKTTQRNKQIAMGRKKFNMDPKKGIQFLIENDLLQSSPEDVAQFLYKGEGLNKTVIGDYLGERDEFNIKVLQAFVELHEFADLNLVQALRQFLWSFRLPGEAQKIDRMMEAFASRYCLCNPGVFQSTDTCYVLSFAIIMLNTSLHNHNVRDKPTAERFIAMNRGINEGGDLPEELLRNLYESIKNEPFKIPEDDGNDLTHTFFNPDREGWLLKLGGGRVKTWKRRWFILTDNCLYYFEYTTDKEPRGIIPLENLSIREVEDPRKPNCFELYNPSHKGQVIKACKTEADGRVVEGNHVVYRISAPSPEEKEEWMKSIKASISRDPFYDMLATRKRRIANKK", "values": [{"measurement": "quenching of fluorescence of BODIPY®-FL-PI(3,4,5)P3", "setting": "[5]; SMQ-Grp1 100 nM, BODIPY®-FL-PI(3,4,5)P3 50 nM", "value": "~70", "unit": "%"}]}]}
